Experimental findings from patent publication US20150353495A1 (PORTOLA PHARMACEUTICALS, INC., priority 2010, published 2015) are described below.

Common to all, as to type: biochemical
In assay [1] the target is T1, JAK1 (Homo sapiens, UniProt P23458).
T1 construct: 5 μl of catalytic domain recombinant Kinase enzyme+Tyr peptide substrate (Invitrogen, CA); purchased Invitrogen
The assay is described as follows: Z'-LYTE kinase assay JAK1. Put shortly:
(§1)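 In duplicate wells, each test molecule (1% final DMSO) is incubated with recombinant kinase catalytic domain, Tyr6 peptide substrate and ATP for one hour at room temperature; a site-specific protease is then added for another hour before fluorescence reading.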

Assay [2] concerns the target T2, JAK2 (Homo sapiens, UniProt O60674).
T2 construct: 5 μl of catalytic domain recombinant Kinase enzyme+Tyr peptide substrate (Invitrogen, CA); purchased Invitrogen
Briefly: Z'-LYTE kinase assay JAK2. Put shortly: as §1

Assay [3] has as its target T3, JAK3 (Homo sapiens, UniProt P52333).
T3 construct: 5 μl of catalytic domain recombinant Kinase enzyme+Tyr peptide substrate (Invitrogen, CA); purchased Invitrogen
Briefly: Z'-LYTE kinase assay JAK3. The essentials: as §1

T3 sequence (P52333 822-1111 limits assumed): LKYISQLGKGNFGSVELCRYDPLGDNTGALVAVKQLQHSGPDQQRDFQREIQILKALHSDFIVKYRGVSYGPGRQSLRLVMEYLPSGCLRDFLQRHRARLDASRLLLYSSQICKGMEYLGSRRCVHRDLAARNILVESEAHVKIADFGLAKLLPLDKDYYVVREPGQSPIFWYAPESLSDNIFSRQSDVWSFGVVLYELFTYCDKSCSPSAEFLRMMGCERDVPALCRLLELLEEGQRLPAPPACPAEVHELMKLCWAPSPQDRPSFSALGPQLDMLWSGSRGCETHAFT
T2 sequence (O60674 849-1124 limits assumed): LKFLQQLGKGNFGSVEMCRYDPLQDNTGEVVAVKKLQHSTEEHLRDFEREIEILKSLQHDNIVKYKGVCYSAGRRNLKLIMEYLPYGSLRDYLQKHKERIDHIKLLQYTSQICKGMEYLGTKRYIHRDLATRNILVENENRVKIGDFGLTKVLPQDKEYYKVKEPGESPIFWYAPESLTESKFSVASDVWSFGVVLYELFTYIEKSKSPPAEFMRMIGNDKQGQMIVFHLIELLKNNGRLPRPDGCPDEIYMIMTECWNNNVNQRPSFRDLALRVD
T1 sequence (P23458 875-1153 limits assumed): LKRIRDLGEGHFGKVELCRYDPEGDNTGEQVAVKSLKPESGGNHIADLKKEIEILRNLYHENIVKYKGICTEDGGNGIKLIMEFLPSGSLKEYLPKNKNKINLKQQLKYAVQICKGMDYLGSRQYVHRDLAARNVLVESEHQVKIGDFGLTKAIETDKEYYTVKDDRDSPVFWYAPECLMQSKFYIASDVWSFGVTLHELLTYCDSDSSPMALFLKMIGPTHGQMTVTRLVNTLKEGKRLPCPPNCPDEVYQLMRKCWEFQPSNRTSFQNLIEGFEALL

On to `CCC(=O)N1CCN(c2ccc(Nc3cc(NC4(c5cccc(F)c5F)CC4)c(C(N)=O)cn3)cc2)CC1` [Example 374, 4-(1-(2,3-difluorophenyl)cyclopropylamino)-6-(4-(4-propionylpiperazin-1-yl)phenylamino)nicotinamide], for which the IC50 (in general, the concentration at which inhibition is half-maximal) in assay [1] lay within 100 to 1000 nM; in assay [2], 10 to 100 nM; in assay [3], 1 to 10 nM.
With `CCC(=O)N1CCC(c2ccc(Nc3cc(NC4(c5ccccc5)CC4)c(C(N)=O)cn3)cc2)CC1` [Example 375, 4-(1-phenylcyclopropylamino)-6-(4-(1-propionylpiperidin-4-yl)phenylamino)nicotinamide], the IC50 in assay [1] was above 1000 nM; in assay [2], above 1000 nM; in assay [3], 10 to 100 nM.
As to `CC(=O)N1CCN(c2ccc(Nc3ncc(C(N)=O)c(NCc4cccc(F)c4)c3Cl)cc2)CC1` [Example 376], the values for the half-maximal inhibitory concentration (IC50) in assay [1], in assay [2] and in assay [3] were above 1000 nM, above 1000 nM and 100 to 1000 nM, respectively.
Take `N#CCOc1cccc(Nc2cc(NCc3ccccc3)c(C(N)=O)cn2)c1` [Example 383]: the IC50 in assay [1] lay in the range of 100 to 1000 nM; in assay [2], 100 to 1000 nM; in assay [3] it was 10 to 100 nM.
Take `N#CCc1cccc(Nc2cc(NCc3ccccc3)c(C(N)=O)cn2)c1` [Example 387]: the IC50 in assay [1] lay within 100 to 1000 nM; in assay [2], 100 to 1000 nM; in assay [3], 1 to 10 nM.
As for `N#CCc1ccc(Nc2cc(NCc3ccccc3)c(C(N)=O)cn2)cc1` [Example 390], the results for the IC50 in assay [1], in assay [2] and in assay [3] were 100 to 1000 nM, 100 to 1000 nM and 10 to 100 nM, respectively.
For `N#Cc1cccc(Nc2cc(NCc3ccccc3)c(C(N)=O)cn2)c1` [Example 391], the IC50 in assay [1] was above 1000 nM; in assay [2], above 1000 nM; in assay [3], 10 to 100 nM.
On to `N#Cc1ccc(Nc2cc(NCc3ccccc3)c(C(N)=O)cn2)cc1` [Example 392], for which the results for the IC50 in assay [1], in assay [2] and in assay [3] were above 1000 nM, above 1000 nM and 100 to 1000 nM, respectively.
Take `N#Cc1ccc(Nc2cc(NCc3ccccc3)c(C(N)=O)cn2)cc1C#N` [Example 393]: the IC50 in assay [1], in assay [2] and in assay [3] was above 1000 nM in each case.
`NC(=O)c1cnc(Nc2ccc(N3CCN(c4ccccn4)CC3)cc2)cc1NCc1cccc2[nH]ccc12` [Example 402]: the IC50 lay in the range of 10 to 100 nM in assay [1], 10 to 100 nM in assay [2] and 1 to 10 nM in assay [3].
`CS(=O)(=O)c1ccc(Nc2cc(NCc3cccc(-c4ccncc4)c3)c(C(N)=O)cn2)cc1` [Example 413, 6-(4-(methylsulfonyl)phenylamino)-4-(3-(pyridine-4-yl)benzylamino)nicotinamide]: the IC50 was above 1000 nM in assay [1], above 1000 nM in assay [2] and 10 to 100 nM in assay [3].
With `CN(C)C(=O)c1ccc(Nc2cc(NCc3cccc(-c4cccnc4)c3)c(C(N)=O)cn2)cc1` [Example 414, 6-(4-(dimethylcarbamoyl)phenylamino)-4-(3-(pyridine-3-yl)benzylamino)nicotinamide], the IC50 lay in the range of 100 to 1000 nM in assay [1], 100 to 1000 nM in assay [2] and 1 to 10 nM in assay [3].
Take `CS(=O)(=O)c1ccc(Nc2cc(NCc3cccc(-c4cccnc4)c3)c(C(N)=O)cn2)cc1` [Example 415]: the figures for the IC50 in assay [1], in assay [2] and in assay [3] were above 1000 nM, above 1000 nM and 10 to 100 nM, respectively.
On to `CCC(=O)N1CCC(c2ccc(Nc3cc(NCc4cccc(-c5cccnc5)c4)c(C(N)=O)cn3)cc2)CC1` [Example 416, 6-(4-(1-propionylpiperidin-4-yl)phenylamino)-4-(3-(pyridine-3-yl)benzylamino)nicotinamide], for which the IC50 is above 1000 nM in assay [1], above 1000 nM in assay [2] and 1 to 10 nM in assay [3].
Regarding `CN(C)S(=O)(=O)Cc1ccc(Nc2cc(NCc3cccc(-c4ccncc4)c3)c(C(N)=O)cn2)cc1` [Example 417, 6-(4-((N,N-dimethylsulfamoyl)methyl)phenylamino)-4-(3-(pyridine-4-yl)benzylamino)nicotinamide], the IC50 lay in the range of 100 to 1000 nM in assay [1], 100 to 1000 nM in assay [2] and 1 to 10 nM in assay [3].
In the case of `CS(=O)(=O)Cc1ccc(Nc2cc(NCc3cccc(-c4ccncc4)c3)c(C(N)=O)cn2)cc1` [Example 418, 6-(4-(methylsulfonylmethyl)phenylamino)-4-(3-(pyridine-4-yl)benzylamino)nicotinamide], the IC50 in assay [1] was in the range of 100 to 1000 nM; in assay [2] it was 100 to 1000 nM; in assay [3], 1 to 10 nM.
For the molecule `CN(C)C(=O)C1CCN(c2ccc(Nc3cc(NCc4cccc(-c5ccncc5)c4)c(C(N)=O)cn3)cc2)CC1` [Example 419, 6-(4-(4-(dimethylcarbamoyl)piperidin-1-yl)phenylamino)-4-(3-(pyridine-4-yl)benzylamino)nicotinamide], the results for the IC50 in assay [1], in assay [2] and in assay [3] were above 1000 nM, 100 to 1000 nM and 1 to 10 nM, respectively.
As to `CN(C)C(=O)c1ccc(Nc2cc(NCc3cccc(-c4ccccn4)c3)c(C(N)=O)cn2)cc1` [Example 421, 6-(4-(dimethylcarbamoyl)phenylamino)-4-(3-(pyridine-2-yl)benzylamino)nicotinamide], the IC50 in assay [1] was above 1000 nM; in assay [2] it was 100 to 1000 nM; in assay [3] it was 10 to 100 nM.
As to `CN(C)C(=O)c1ccc(Nc2cc(NCc3cccc(-n4cccn4)c3)c(C(N)=O)cn2)cc1` [Example 422, 4-(3-(1H-pyrazol-1-yl)benzylamino)-6-(4-(dimethylcarbamoyl)phenylamino)nicotinamide], the figures for the IC50 in assay [1], in assay [2] and in assay [3] were above 1000 nM, 100 to 1000 nM and 10 to 100 nM, respectively.
The matching figures for `NC(=O)c1cnc(Nc2ccc(S(=O)(=O)N3CCC3)cc2)nc1NCc1ccccc1` [Example 434, 2-(4-(azetidin-1-ylsulfonyl)phenylamino)-4-(benzylamino)pyrimidine-5-carboxamide]: above 1000 nM, 100 to 1000 nM and 10 to 100 nM.
The matching figures for `NC(=O)c1cnc(Nc2ccc(F)c(C(=O)N3CCC3)c2)cc1NCc1ccccc1` [Example 439, 6-(3-(azetidine-1-carbonyl)-4-fluorophenylamino)-4-(benzylamino)nicotinamide]: 100 to 1000 nM, 100 to 1000 nM and 10 to 100 nM.
The like results for `CN(C)C(=O)c1cc(Nc2cc(NCc3ccccc3)c(C(N)=O)cn2)ccc1N(C)C` [Example 440, 4-(benzylamino)-6-(4-(dimethylamino)-3-(dimethylcarbamoyl)phenylamino)nicotinamide] were, in that order, 100 to 1000 nM, 100 to 1000 nM and 10 to 100 nM.
For `COc1cc(Nc2cc(NC[C@H]3CCCN(C(C)=O)C3)c(C(N)=O)cn2)ccc1C(=O)N(C)C` [Example 441, (R)-4-((1-acetylpiperidin-3-yl)methylamino)-6-(4-(dimethylcarbamoyl)-3-methoxyphenylamino)nicotinamide], the IC50 in assay [1] was above 1000 nM; in assay [2] it was 100 to 1000 nM; in assay [3] it was 10 to 100 nM.
Regarding `CC(=O)N1CCC[C@H](CNc2cc(Nc3ccc(C(=O)N(C)C)c(Cl)c3)ncc2C(N)=O)C1` [Example 442, (R)-4-((1-acetylpiperidin-3-yl)methylamino)-6-(3-chloro-4-(dimethylcarbamoyl)phenylamino)nicotinamide], the IC50 in assay [1] is above 1000 nM; in assay [2] it was 100 to 1000 nM; in assay [3], 10 to 100 nM.
Consider `CC(=O)N1CCC[C@H](CNc2cc(Nc3ccc(F)c(C(=O)N4CCC4)c3)ncc2C(N)=O)C1` [Example 444, (R)-4-((1-acetylpiperidin-3-yl)methylamino)-6-(3-(azetidine-1-carbonyl)-4-fluorophenylamino)nicotinamide], for which the IC50 in assay [1] is above 1000 nM; in assay [2] it was above 1000 nM; in assay [3], 100 to 1000 nM.
As for `CC(=O)N1CCC[C@H](CNc2cc(Nc3ccc(C(=O)N(C)C)c(N(C)C)c3)ncc2C(N)=O)C1` [Example 445, (R)-4-((1-acetylpiperidin-3-yl)methylamino)-6-(3-(dimethylamino)-4-(dimethylcarbamoyl)phenylamino)nicotinamide], the IC50 in assay [1] was above 1000 nM; in assay [2] it was 100 to 1000 nM; in assay [3] it was 100 to 1000 nM.
Turning to `Cc1cc(Nc2cc(NCc3cccc(F)c3F)c(C(N)=O)cn2)ccc1C(=O)N1CCC1` [Example 454, 6-(4-(azetidine-1-carbonyl)-3-methylphenylamino)-4-(2,3-difluorobenzylamino)nicotinamide], the IC50 in assay [1] was 100 to 1000 nM; in assay [2] it was 10 to 100 nM; in assay [3] it was below 1 nM.
The matching figures for `Cc1cc(Nc2cc(NCc3cccc(F)c3F)c(C(N)=O)cn2)ccc1C(=O)N1CCOCC1` [Example 455, 4-(2,3-difluorobenzylamino)-6-(3-methyl-4-(morpholine-4-carbonyl)phenylamino)nicotinamide]: 100 to 1000 nM, 10 to 100 nM and 1 to 10 nM.
The matching figures for `Cc1cc(Nc2cc(NCc3cccc(F)c3F)c(C(N)=O)cn2)ccc1C(=O)N1CCCC1` [Example 456, 4-(2,3-difluorobenzylamino)-6-(3-methyl-4-(pyrrolidine-1-carbonyl)phenylamino)nicotinamide]: 100 to 1000 nM, 10 to 100 nM and below 1 nM.
The like results for `Cc1cc(Nc2cc(NCc3cccc4ccsc34)c(C(N)=O)cn2)ccc1C(=O)N1CCOCC1` [Example 459, 4-(benzo[b]thiophen-7-ylmethylamino)-6-(3-methyl-4-(morpholine-4-carbonyl)phenylamino)nicotinamide] were, in that order, 100 to 1000 nM, 10 to 100 nM and 1 to 10 nM.
For the molecule `Cc1cc(Nc2cc(NCc3cccc4[nH]ccc34)c(C(N)=O)cn2)ccc1C(=O)N1CCC1` [Example 460, 4-((1H-indol-4-yl)methylamino)-6-(4-(azetidine-1-carbonyl)-3-methylphenylamino)nicotinamide], the IC50 was 1 to 10 nM in assay [1], 1 to 10 nM in assay [2] and below 1 nM in assay [3].
